# Legend:
# crabgrass = test: Test Example 2: soil application on the day after sowing, growth inhibition rate, crabgrass; type: in vivo, Digitaria sanguinalis L.; conditions: 250 g/ha active ingredient, observed on 19th to 24th day
# Summary of the method: (§1)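 Upland soil pots sown with crop and weed seeds; next day wettable powder or emulsifiable concentrate at prescribed active-ingredient amounts, diluted to 500 L/ha water, sprayed onto soil. Growth inhibition scored visually 19–24 days later, 0 (as untreated) to 100% (complete kill).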
# [1] = tested on: prickly sida (Sida spinosa L.); test: Test Example 1: foliar treatment, growth inhibition rate, prickly sida; type: in vivo; conditions: 31 g/ha active ingredient, visually observed 17th to 23rd day after application
# Summary of the method: (§2)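 Visual scoring of growth inhibition, 0% (untreated) to 100% (complete kill), on days 17–23 following post-emergence spray of formulated compound in water (500 L/ha, 0.1 vol % spreader); plants treated at set leaf stages, e.g. corn 2.0–3.5, wheat 1.7–3.4.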
# corn = test: Test Example 2: soil application on the day after sowing, growth inhibition rate, corn; type: in vivo, Zea mays L.; conditions: 250 g/ha active ingredient, observed on 19th to 24th day
# Summary of the method: as §1
# [2] = tested on: greenfoxtail (Setaria viridis L.); test: Test Example 1: foliar treatment, growth inhibition rate, greenfoxtail; type: in vivo; conditions: 31 g/ha active ingredient, visually observed 17th to 23rd day after application
# Summary of the method: (§3)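 Potted upland soil; compounds as wettable powders or emulsifiable concentrates diluted in water at 500 L/ha plus 0.1 vol % spreader, foliar-sprayed at defined leaf stages (rice 1.0–2.5, wheat 1.7–3.4, corn 2.0–3.5, greenfoxtail 1.0–3.0). Growth inhibition (0–100%) scored visually 17–23 days after application.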
# wheat (Triticum spp.) = test: Test Example 1: foliar treatment, growth inhibition rate, wheat; type: in vivo; conditions: 31 g/ha active ingredient, visually observed 17th to 23rd day after application
# Summary of the method: as §3
# prickly sida = test: Test Example 2: soil application on the day after sowing, growth inhibition rate, prickly sida; type: in vivo, Sida spinosa L.; conditions: 250 g/ha active ingredient, observed on 19th to 24th day
# Summary of the method: as §1
# [3] = tested on: crabgrass (Digitaria sanguinalis L.); test: Test Example 1: foliar treatment, growth inhibition rate, crabgrass; type: in vivo; conditions: 31 g/ha active ingredient, visually observed 17th to 23rd day after application
# Summary of the method: as §2
# [4] = tested on: barnyardgrass (Echinochloa crus-galli L.); test: Test Example 1: foliar treatment, growth inhibition rate, barnyardgrass; type: in vivo; conditions: 31 g/ha active ingredient, visually observed 17th to 23rd day after application
# Summary of the method: (§4)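 Post-emergence foliar spray, pot test; WP/EC formulation in water at 500 L/ha, + 0.1 vol % spreader; leaf stage at treatment: corn 2.0–3.5, green foxtail 1.0–3.0, rice 1.0–2.5, wheat 1.7–3.4; visual % inhibition at 17–23 DAT (0 = untreated, 100 = dead).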
# velvetleaf = test: Test Example 2: soil application on the day after sowing, growth inhibition rate, velvetleaf; type: in vivo, Abutilon theophrasti MEDIC.; conditions: 250 g/ha active ingredient, observed on 19th to 24th day
# Summary of the method: as §1
# corn (Zea mays L.) = test: Test Example 1: foliar treatment, growth inhibition rate, corn; type: in vivo; conditions: 31 g/ha active ingredient, visually observed 17th to 23rd day after application
# Summary of the method: as §3
# barnyardgrass = test: Test Example 2: soil application on the day after sowing, growth inhibition rate, barnyardgrass; type: in vivo, Echinochloa crus-galli L.; conditions: 250 g/ha active ingredient, observed on 19th to 24th day
# Summary of the method: as §1
# wheat = test: Test Example 2: soil application on the day after sowing, growth inhibition rate, wheat; type: in vivo, Triticum spp.; conditions: 250 g/ha active ingredient, observed on 19th to 24th day
# Summary of the method: as §1
# soybean = test: Test Example 2: soil application on the day after sowing, growth inhibition rate, soybean; type: in vivo, Glycine max Merr.; conditions: 250 g/ha active ingredient, observed on 19th to 24th day
# Summary of the method: as §1
# greenfoxtail = test: Test Example 2: soil application on the day after sowing, growth inhibition rate, greenfoxtail; type: in vivo, Setaria viridis L.; conditions: 250 g/ha active ingredient, observed on 19th to 24th day
# Summary of the method: as §1
# [5] = tested on: redroot pigweed (Amaranthus retroflexus L.); test: Test Example 1: foliar treatment, growth inhibition rate, redroot pigweed; type: in vivo; conditions: 31 g/ha active ingredient, visually observed 17th to 23rd day after application
# Summary of the method: as §2
# rice (Oryza sativa L.) = test: Test Example 1: foliar treatment, growth inhibition rate, rice; type: in vivo; conditions: 31 g/ha active ingredient, visually observed 17th to 23rd day after application
# Summary of the method: as §3
# rice = test: Test Example 2: soil application on the day after sowing, growth inhibition rate, rice; type: in vivo, Oryza sativa L.; conditions: 250 g/ha active ingredient, observed on 19th to 24th day
# Summary of the method: as §1
# [6] = tested on: soybean (Glycine max Merr.); test: Test Example 1: foliar treatment, growth inhibition rate, soybean; type: in vivo; conditions: 31 g/ha active ingredient, visually observed 17th to 23rd day after application
# Summary of the method: as §2
# [7] = tested on: velvetleaf (Abutilon theophrasti MEDIC.); test: Test Example 1: foliar treatment, growth inhibition rate, velvetleaf; type: in vivo; conditions: 31 g/ha active ingredient, visually observed 17th to 23rd day after application
# Summary of the method: as §4
# redroot pigweed = test: Test Example 2: soil application on the day after sowing, growth inhibition rate, redroot pigweed; type: in vivo, Amaranthus retroflexus L.; conditions: 250 g/ha active ingredient, observed on 19th to 24th day
# Summary of the method: as §1
SMILES,Growth inhibition rate (%) Crabgrass (crabgrass),Growth inhibition rate (%) Prickly sida [1],Growth inhibition rate (%) Corn (corn),Growth inhibition rate (%) Greenfoxtail [2],Growth inhibition rate (%) Wheat (wheat (Triticum spp.)),Growth inhibition rate (%) Prickly sida (prickly sida),Growth inhibition rate (%) Crabgrass [3],Growth inhibition rate (%) Barnyardgrass [4],Growth inhibition rate (%) Velvetleaf (velvetleaf),Growth inhibition rate (%) Corn (corn (Zea mays L.)),Growth inhibition rate (%) Barnyardgrass (barnyardgrass),Growth inhibition rate (%) Wheat (wheat),Growth inhibition rate (%) Soybean (soybean),Growth inhibition rate (%) Greenfoxtail (greenfoxtail),Growth inhibition rate (%) redroot pigweed [5],Growth inhibition rate (%) Rice (rice (Oryza sativa L.)),Growth inhibition rate (%) Rice (rice),Growth inhibition rate (%) Soybean [6],Growth inhibition rate (%) Velvetleaf [7],Growth inhibition rate (%) redroot pigweed (redroot pigweed)
COC(=O)c1c(S(C)(=O)=O)ccc(C(=O)c2cnn(C)c2OC(=O)SCc2ccccc2)c1C [compound 92],95%,10%,0%,60%,0%,60%,0%,0%,50%,0%,80%,0%,0%,70%,10%,0%,80%,10%,70%,70%
CCSC(=O)Oc1c(C(=O)c2ccc(S(C)(=O)=O)c(CN(C)CC#N)c2C)cnn1C [compound 210],10%,70%,0%,50%,0%,40%,30%,80%,0%,0%,0%,0%,0%,0%,10%,50%,0%,50%,60%,20%
CCSC(=O)Oc1c(C(=O)c2ccc(S(C)(=O)=O)c(OCCOC)c2Cl)cnn1C [compound 216],100%,50%,0%,98%,0%,80%,100%,100%,90%,10%,95%,0%,0%,100%,100%,70%,80%,95%,98%,100%

# Reference: US8030498B2, “Benzoylpyrazole compounds and herbicides containing them” (Ishihara Sangyo Kaisha, Ltd., priority 2005, dated 2011)
